Assays:
[1] = Stability of 5.0% solution (percentage of total degradates on storage); assay type: physicochemical; conditions: for individual degradate versus ICH qualification threshold: about 2 months
Procedure: Three separate 5.0% aqueous solutions of the compound of Formula 1 were prepared and allowed to stand at temperatures of about 5° C., 25° C., and 40° C. respectively for a period of about 15 months. The percentage of total degradates was measured for each solution after about every 4 weeks. The results of this experiment are graphically represented in FIG. 1.

[2] = Stability of three different formulations (total degradates at 40° C.); assay type: physicochemical
Procedure: Three separate solutions of the compound of Formula 1 of same concentration were prepared. The first solution (pH=6.0) was stored at 40° C. without any further additives for about four months. The second solution (pH=6.0) was further treated with a metabisulfite salt and allowed to stand at 40° C. for about four months. The pH of the third solution was buffered to pH 7.5 and allowed to stand at 40° C. for about 4 months without any further additives. The percentage of total degradates was measured for each solution after about every 4 weeks. The results of this experiment are graphically represented in FIG. 2.

[3] = Effect of antioxidants on stability of 3% w/v solutions; assay type: physicochemical; conditions: pH 6.5 with 0.3% w/v thiosulfate salt (40, 50, 60° C.) vs pH 7.5 without antioxidant at 40° C., about nine weeks
Procedure: Four separate solutions containing 3% w/v of the compound of Formula 1 were prepared. The pH of the first solution was buffered to 6.5, 0.3% w/v thiosulfate salt was added and the solution was stored at 50° C. for about nine weeks. The pH of the second solution was adjusted to 6.5, 0.3% thiosulfate salt was added and the solution was stored at 40° C. for about nine weeks. The pH of the third solution was buffered to 6.5, 0.3% thiosulfate salt was added and the solution was allowed to stand at 60° C. for about nine […]. No antioxidant was added to the fourth solution which was buffered to a pH of 7.5 and allowed to stand at a temperature of 40° C. for about 9 weeks. The percentage of total degradates was measured for each solution after about every 2-4 weeks. The results of this experiment are graphically represented in FIG. 3.

[4] = Effect of concentration (and EDTA) on formulation stability; assay type: physicochemical; conditions: solutions with and without 0.1% EDTA
Procedure: Three different concentrations of the compound of Formula 1, 1.0%, 3.0% and 5.0% were studied. The samples were monitored at a temperature of 40° C. The pH of the three solutions was maintained in the range of 7.0-7.5. The total % degradation of the three solutions was monitored with respect to time. The results of this experiment are graphically represented in FIG. 4.
Solutions both with and without 0.1% EDTA were monitored.

[5] = Individual degradates A and B by HPLC analysis on storage; assay type: physicochemical; conditions: 5.0% w/v solutions, 40° C. vs 60° C., about nine weeks
Procedure: Two solutions containing 5.0% w/v of the compound of Formula 1 were prepared. The first solution was stored at 40° C. for about 9 weeks and the second solution was stored at 60° C. for a period of about nine weeks. The percentage of each of the two major degradates of Formula 1 (degradate A and degradate B) was measured by HPLC analysis for each solution after about every 2-4 weeks. The results of this experiment are graphically represented in FIG. 5.

[6] = Degradation profile of 1.0% and 5.0% w/v solutions (degradation mechanism); assay type: physicochemical
Text: The results of these experiments are graphically represented in FIG. 7.

[7] = Effect of sparging with nitrogen on stability; assay type: physicochemical; conditions: about 40° C., about four months
Procedure: Four separate solutions of the compound of Formula 1 were prepared. The pH of the first solution was buffered to 6.0. The pH of the second solution was also buffered to 6.0 and the solution was additionally sparged with nitrogen. The pH of the third solution was buffered to 7.0. The pH of the fourth solution was also buffered to 7.0 and the solution was further sparged with nitrogen. All the four solutions were stored at a temperature of about 40° C. for a period of about four months. The percentage of total degradates was measured for each solution after about every four weeks. The results of this experiment are graphically represented in FIG. 8.

[8] = Effect of pH on stability of nitrogen sparged solutions (four months); assay type: physicochemical; conditions: pH 6.0, 7.0, 7.5, about 40° C.
Procedure: Three solutions of the compound of Formula 1 were prepared. The pH of the first solution was buffered to 6.0, the pH of the second solution was also buffered to 7.0 and pH of the third solution was buffered to 7.5. All the three solutions were sparged with nitrogen were stored at a temperature of about 40° C. for a period of about four months. The percentage of total degradates was measured for each solution after about every four weeks. The results of this experiment are graphically represented in FIG. 9.

[9] = Effect of pH on stability of formulation with antioxidant (metabisulfite); assay type: physicochemical; conditions: metabisulfite salt, pH 6.0 and 7.0, about 40° C., about four months
Procedure: Two solutions of the compound of Formula 1 were prepared. The pH of the first solution was buffered to 6.0 and the pH of the second solution was also buffered to 7.0. A metabisulfite salt was added to both the solutions and were stored at a temperature of about 40° C. for a period of about four months. The percentage of total degradates was measured for each solution after about every four weeks. The results of this experiment are graphically represented in FIG. 10.

[10] = Effect of various antioxidants on stability at pH 6.5; assay type: physicochemical; conditions: pH about 6.5, about 40° C., about one month, sodium thiosulfate (0.3% w/v) alone vs bisulfite, acetylcysteine, thioglycerol, Vitamin E TPGS, ascorbic acid
Procedure: Seven different solutions of Formula 1, buffered at a pH of about 6.5, were prepared. Sodium bisulfite (0.2% w/v) and sodium thiosulfate (0.3% w/v) were added to the first solution, sodium bisulfite (0.2% w/v) was added to the second solution, sodium thiosulfate (0.3% w/v) was added to the third solution, acetylcysteine (0.2% w/v) was added to the fourth solution, thioglycerol (0.2% w/v) was added to the fifth solution, Vitamin E TPGS ([…]) was added to the sixth solution, and ascorbic acid (0.3% w/v) was added to the seventh solution. All solutions were stored at a temperature of about 40° C. for a period of about one month after which the percentage of total degradates was measured for each solution. The results of this experiment are graphically represented in FIG. 11.

[11] = Effect of pH on stability, no antioxidant (one month); assay type: physicochemical; conditions: pH 6.0, 7.0, 7.5, 8.0, 8.5, no antioxidant, about 40° C.
Procedure: Five different solutions of the compound of Formula 1 were prepared. The first solution was buffered to a pH of 6.0, the second solution was buffered to pH 7.0, the third solution was buffered to pH 7.5, the fourth solution was buffered to pH 8.0, and the fifth solution was buffered a pH of 8.5. No antioxidant was added and all solutions were stored at a temperature of about 40° C. for a period of about one month after which the percentage of total degradates was measured for each solution. The results of this experiment are graphically represented in FIG. 12.

[12] = biological target: LFA-1 interactions with ICAM-1 (Homo sapiens, UniProt P05107+P20701); experiment: Inhibition of LFA-1 interactions with ICAM-1
Sequence of LFA-1 interactions with ICAM-1 (P20701 26-1170): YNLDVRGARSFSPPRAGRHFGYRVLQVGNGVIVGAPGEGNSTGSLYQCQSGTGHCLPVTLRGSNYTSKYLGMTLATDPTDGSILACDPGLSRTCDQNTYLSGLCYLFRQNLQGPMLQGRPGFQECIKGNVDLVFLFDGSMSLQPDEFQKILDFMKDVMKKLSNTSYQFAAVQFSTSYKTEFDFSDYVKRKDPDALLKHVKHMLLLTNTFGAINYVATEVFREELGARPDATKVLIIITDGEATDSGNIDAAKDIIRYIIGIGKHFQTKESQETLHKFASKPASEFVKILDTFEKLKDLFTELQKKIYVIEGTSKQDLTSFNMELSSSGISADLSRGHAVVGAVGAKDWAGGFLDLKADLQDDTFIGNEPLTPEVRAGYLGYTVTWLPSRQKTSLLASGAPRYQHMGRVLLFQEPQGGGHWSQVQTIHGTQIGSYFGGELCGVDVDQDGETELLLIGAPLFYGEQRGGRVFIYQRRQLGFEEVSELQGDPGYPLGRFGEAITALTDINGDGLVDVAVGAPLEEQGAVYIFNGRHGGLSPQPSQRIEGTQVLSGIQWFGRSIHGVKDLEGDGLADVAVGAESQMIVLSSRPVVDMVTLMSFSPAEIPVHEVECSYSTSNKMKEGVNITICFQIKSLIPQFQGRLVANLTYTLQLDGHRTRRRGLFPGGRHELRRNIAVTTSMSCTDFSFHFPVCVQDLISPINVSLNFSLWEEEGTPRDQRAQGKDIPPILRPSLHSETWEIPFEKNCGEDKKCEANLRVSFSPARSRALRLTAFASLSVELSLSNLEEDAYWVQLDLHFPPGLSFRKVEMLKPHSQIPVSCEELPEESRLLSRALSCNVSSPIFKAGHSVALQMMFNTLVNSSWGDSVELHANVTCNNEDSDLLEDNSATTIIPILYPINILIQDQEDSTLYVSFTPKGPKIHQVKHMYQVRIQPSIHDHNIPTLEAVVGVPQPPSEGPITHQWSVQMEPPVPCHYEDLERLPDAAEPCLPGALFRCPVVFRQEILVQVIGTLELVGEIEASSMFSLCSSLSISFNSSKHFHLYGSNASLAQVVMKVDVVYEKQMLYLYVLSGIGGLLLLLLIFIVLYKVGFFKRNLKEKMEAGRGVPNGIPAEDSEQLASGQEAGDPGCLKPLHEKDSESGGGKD
Sequence of LFA-1 interactions with ICAM-1 (P05107 23-769): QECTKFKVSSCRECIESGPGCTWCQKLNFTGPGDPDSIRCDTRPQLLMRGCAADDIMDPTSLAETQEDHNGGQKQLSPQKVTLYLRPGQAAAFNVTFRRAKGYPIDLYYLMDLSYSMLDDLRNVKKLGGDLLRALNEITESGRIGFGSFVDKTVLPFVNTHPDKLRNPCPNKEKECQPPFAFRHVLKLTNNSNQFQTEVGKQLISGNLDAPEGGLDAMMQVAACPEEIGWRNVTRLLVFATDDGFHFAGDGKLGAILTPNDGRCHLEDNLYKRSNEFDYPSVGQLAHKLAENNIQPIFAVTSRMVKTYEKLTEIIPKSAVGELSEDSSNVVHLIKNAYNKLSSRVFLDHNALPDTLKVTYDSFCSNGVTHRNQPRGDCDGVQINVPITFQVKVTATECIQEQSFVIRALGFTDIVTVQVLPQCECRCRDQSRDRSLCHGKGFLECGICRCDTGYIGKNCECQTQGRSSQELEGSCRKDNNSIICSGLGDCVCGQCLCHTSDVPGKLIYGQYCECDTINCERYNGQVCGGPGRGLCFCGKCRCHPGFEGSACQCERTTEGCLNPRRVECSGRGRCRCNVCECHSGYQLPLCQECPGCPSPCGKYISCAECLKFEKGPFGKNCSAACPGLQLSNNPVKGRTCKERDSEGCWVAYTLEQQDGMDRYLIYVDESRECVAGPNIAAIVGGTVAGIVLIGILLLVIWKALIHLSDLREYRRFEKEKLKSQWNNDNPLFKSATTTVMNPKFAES

Systemic clearance = conditions: in vivo

total degradation product ([1]; 5.0% aqueous solution stored at 5° C., after about 6 months): about 5%
total degradation product ([1]; 5.0% aqueous solution stored at 25° C., in about 2 months): 5%
total degradation product ([1]; 5.0% aqueous solution stored at 40° C., in about 2 months): 5%
stability (total degradates), effect of added antioxidant ([2]; pH 6.0 with metabisulfite salt vs pH 6.0 without additives, about four months): increases the stability
stability (total degradates), effect of increasing pH ([2]; pH 7.5 without antioxidant vs pH 6.0 without additives, about 4 months): increases the stability
stability (total degradates), effect of added antioxidant [3]: increased the stability
stability, effect of presence or absence of EDTA [4]: did significantly change the stability
% formation of degradates A and B, effect of storage temperature [5]: did not significantly affect
stability (total degradates), effect of nitrogen sparging ([7]; pH 6.0 and pH 7.0, sparged vs not sparged): better stability
stability (total degradates), pH 7.0 vs pH 6.0 ([7]; with and without nitrogen sparging): improved stability
stability (total degradates), effect of pH [8]: higher pH exhibited improved stability
stability (total degradates), comparison of antioxidants [10]: best overall stability
stability (total degradates), effect of pH [11]: higher pH exhibited better stability
inhibition of LFA-1 interactions with ICAM-1 [12]: effective inhibitor
systemic clearance rate (Systemic clearance): rapid systemic clearance rate
SMILES: CS(=O)(=O)c1cccc(C[C@H](NC(=O)c2c(Cl)cc3c(c2Cl)CCN(C(=O)c2ccc4ccoc4c2)C3)C(=O)O)c1 [compound of Formula 1]
individual degradant versus ICH qualification threshold ([1]; 5.0% aqueous solution stored at 5° C., about 6 months): no individual degradant above the ICH qualification threshold
individual degradate versus ICH qualification threshold ([1]; 5.0% aqueous solution stored at 25° C.): no individual degradate above the ICH qualification threshold
individual degradate versus ICH qualification threshold ([1]; 5.0% aqueous solution stored at 40° C.): no individual degradate above the ICH qualification threshold
rate of degradation, 5.0% w/v vs 1.0% w/v solution ([6]; total percentage degradation about every four weeks for six months): greater than the rate of degradation of the 1.0 w/v solution
final level of degradation, 5.0% w/v vs 1.0% w/v solution ([6]; when a limiting reactant such as oxygen is reduced, six months): appear to reach the same level of degradation
degradation and pH sensitivity of stability, effect of antioxidant [9]: significantly reduces both the degradation of Formula 1 and the sensitivity of the stability of Formula 1 to pH

Source: patent US11058677B2, “LFA-1 inhibitor formulations” (Novartis AG, priority 2012, dated 2021)
